Experimental data as given in article PMC11277489, “Novel Piperazine Derivatives of Vindoline as Anticancer Agents” (International Journal of Molecular Sciences, 2024).

Tests used:
HL-60(TB) = assay: NCI60 five-dose screen, Leukemia; type: cell-based; settings: Homo sapiens; HL-60(TB), Leukemia; five-dose screen; read-out: GI50
K-562 = assay: NCI60 five-dose screen, Leukemia; type: cell-based; settings: Homo sapiens, K562; K-562, Leukemia; five-dose screen; read-out: GI50
SR [1] = assay: NCI60 five-dose screen, Leukemia; type: cell-based; settings: Homo sapiens, Leukemia, five-dose screen, read-out: GI50
A549/ATCC = assay: NCI60 five-dose screen, Non-small Cell Lung Cancer; type: cell-based; settings: Homo sapiens; A549/ATCC, Non-small Cell Lung Cancer; five-dose screen; read-out: GI50
NCI-H460 = assay: NCI60 five-dose screen, Non-small Cell Lung Cancer; type: cell-based; settings: Homo sapiens; NCI-H460, Non-small Cell Lung Cancer; five-dose screen; read-out: GI50
HCC-2998 [2] = assay: NCI60 five-dose screen, Colon Cancer; type: cell-based; settings: Homo sapiens; HCC-2998, Colon Cancer; five-dose screen; read-out: GI50
HCT-15 = assay: NCI60 five-dose screen, Colon Cancer; type: cell-based; settings: Homo sapiens; HCT-15, Colon Cancer; five-dose screen; read-out: GI50
SW-620 = assay: NCI60 five-dose screen, Colon Cancer; type: cell-based; settings: Homo sapiens; SW-620, Colon Cancer; five-dose screen; read-out: GI50
SF-268 = assay: NCI60 five-dose screen, CNS Cancer; type: cell-based; settings: Homo sapiens; SF-268, CNS Cancer; five-dose screen; read-out: GI50
U251 = assay: NCI60 five-dose screen, CNS Cancer; type: cell-based; settings: Homo sapiens, U-251; U251, CNS Cancer; five-dose screen; read-out: GI50
LOX IMVI = assay: NCI60 five-dose screen, Melanoma; type: cell-based; settings: Homo sapiens, Melanoma, five-dose screen, read-out: GI50
M14 [3] = assay: NCI60 five-dose screen, Melanoma; type: cell-based; settings: Homo sapiens; M14, Melanoma; five-dose screen; read-out: GI50
MDA-MB-435 = assay: NCI60 five-dose screen, Melanoma; type: cell-based; settings: Homo sapiens; MDA-MB-435, Melanoma; five-dose screen; read-out: GI50
SK-MEL-5 [4] = assay: NCI60 five-dose screen, Melanoma; type: cell-based; settings: Homo sapiens; SK-MEL-5, Melanoma; five-dose screen; read-out: GI50
IGROV1 = assay: NCI60 five-dose screen, Ovarian Cancer; type: cell-based; settings: Homo sapiens, IGROV-1; IGROV1, Ovarian Cancer; five-dose screen; read-out: GI50
OVCAR-3 = assay: NCI60 five-dose screen, Ovarian Cancer; type: cell-based; settings: Homo sapiens; OVCAR-3, Ovarian Cancer; five-dose screen; read-out: GI50
OVCAR-4 = assay: NCI60 five-dose screen, Ovarian Cancer; type: cell-based; settings: Homo sapiens; OVCAR-4, Ovarian Cancer; five-dose screen; read-out: GI50
OVCAR-5 [5] = assay: NCI60 five-dose screen, Ovarian Cancer; type: cell-based; settings: Homo sapiens; OVCAR-5, Ovarian Cancer; five-dose screen; read-out: GI50
NCI/ADR-RES [6] = assay: NCI60 five-dose screen, Ovarian Cancer; type: cell-based; settings: Homo sapiens, Ovarian Cancer, five-dose screen, read-out: GI50
ACHN = assay: NCI60 five-dose screen, Renal Cancer; type: cell-based; settings: Homo sapiens, Renal Cancer, five-dose screen, read-out: GI50
TK-10 = assay: NCI60 five-dose screen, Renal Cancer; type: cell-based; settings: Homo sapiens; TK-10, Renal Cancer; five-dose screen; read-out: GI50
PC-3 = assay: NCI60 five-dose screen, Prostate Cancer; type: cell-based; settings: Homo sapiens; PC-3, Prostate Cancer; five-dose screen; read-out: GI50
MDA-MB231ATCC = assay: NCI60 five-dose screen, Breast Cancer; type: cell-based; settings: Homo sapiens, MDA-MB-231; MDA-MB231ATCC, Breast Cancer; five-dose screen; read-out: GI50
HS 578T = assay: NCI60 five-dose screen, Breast Cancer; type: cell-based; settings: Homo sapiens; HS 578T, Breast Cancer; five-dose screen; read-out: GI50
BT-549 [7] = assay: NCI60 five-dose screen, Breast Cancer; type: cell-based; settings: Homo sapiens; BT-549, Breast Cancer; five-dose screen; read-out: GI50
T-47D [8] = assay: NCI60 five-dose screen, Breast Cancer; type: cell-based; settings: Homo sapiens, T47D; T-47D, Breast Cancer; five-dose screen; read-out: GI50
MDA-MB-468 [9] = assay: NCI60 five-dose screen, Breast Cancer; type: cell-based; settings: Homo sapiens; MDA-MB-468, Breast Cancer; five-dose screen; read-out: GI50
SR [10] = assay: NCI60 one-dose screen (10 μM), Leukemia; type: cell-based; settings: Homo sapiens, 10 μM, Leukemia, read-out: Growth percent rate
NCI-H226 = assay: NCI60 one-dose screen (10 μM), Non-small Cell Lung Cancer; type: cell-based; settings: Homo sapiens; 10 μM; NCI-H226, Non-small Cell Lung Cancer; read-out: Growth percent rate
HCC-2998 [11] = assay: NCI60 one-dose screen (10 μM), Colon Cancer; type: cell-based; settings: Homo sapiens; 10 μM; HCC-2998, Colon Cancer; read-out: Growth percent rate
HT29 = assay: NCI60 one-dose screen (10 μM), Colon Cancer; type: cell-based; settings: Homo sapiens, HT-29; 10 μM; HT29, Colon Cancer; read-out: Growth percent rate
SNB-19 = assay: NCI60 one-dose screen (10 μM), CNS Cancer; type: cell-based; settings: Homo sapiens; 10 μM; SNB-19, CNS Cancer; read-out: Growth percent rate
M14 [12] = assay: NCI60 one-dose screen (10 μM), Melanoma; type: cell-based; settings: Homo sapiens; 10 μM; M14, Melanoma; read-out: Growth percent rate
SK-MEL-5 [13] = assay: NCI60 one-dose screen (10 μM), Melanoma; type: cell-based, human
UACC-62 = assay: NCI60 one-dose screen (10 μM), Melanoma; type: cell-based; settings: Homo sapiens; 10 μM; UACC-62, Melanoma; read-out: Growth percent rate
OVCAR-5 [14] = assay: NCI60 one-dose screen (10 μM), Ovarian Cancer; type: cell-based; settings: Homo sapiens; 10 μM; OVCAR-5, Ovarian Cancer; read-out: Growth percent rate
NCI/ADR-RES [15] = assay: NCI60 one-dose screen (10 μM), Ovarian Cancer; type: cell-based; settings: Homo sapiens, 10 μM, Ovarian Cancer, read-out: Growth percent rate
SK-OV-3 = assay: NCI60 one-dose screen (10 μM), Ovarian Cancer; type: cell-based; settings: Homo sapiens; 10 μM; SK-OV-3, Ovarian Cancer; read-out: Growth percent rate
UO-31 = assay: NCI60 one-dose screen (10 μM), Renal Cancer; type: cell-based; settings: Homo sapiens; 10 μM; UO-31, Renal Cancer; read-out: Growth percent rate
DU-145 = assay: NCI60 one-dose screen (10 μM), Prostate Cancer; type: cell-based; settings: Homo sapiens; 10 μM; DU-145, Prostate Cancer; read-out: Growth percent rate
MDA-MB-231/ATCC = assay: NCI60 one-dose screen (10 μM), Breast Cancer; type: cell-based, human
BT-549 [16] = assay: NCI60 one-dose screen (10 μM), Breast Cancer; type: cell-based; settings: Homo sapiens; 10 μM; BT-549, Breast Cancer; read-out: Growth percent rate
T-47D [17] = assay: NCI60 one-dose screen (10 μM), Breast Cancer; type: cell-based; settings: Homo sapiens, T47D; 10 μM; T-47D, Breast Cancer; read-out: Growth percent rate
MDA-MB-468 [18] = assay: NCI60 one-dose screen (10 μM), Breast Cancer; type: cell-based; settings: Homo sapiens; 10 μM; MDA-MB-468, Breast Cancer; read-out: Growth percent rate

`CCC12C=CCN3CCC4(c5cc(NC(=O)CN6CCN(c7ccc(C(F)(F)F)cc7)CC6)c(OC)cc5N(C)C4C(O)(C(=O)OC)C1OC(C)=O)C32` (stereo not shown) [Compound 17] showed a GI50 (HL-60(TB)) of 2.14 µM, a GI50 (K-562) of 3.02 µM and a GI50 (SR [1]) of 2.95 µM. The GI50 (A549/ATCC) was 4.07 µM, the GI50 (NCI-H460) was 6.46 µM and the GI50 (HCC-2998 [2]) was 7.76 µM. It also gave a GI50 (HCT-15) of 3.89 µM, a GI50 (SW-620) of 5.75 µM and a GI50 (SF-268) of 3.02 µM. For the same compound, the GI50 (U251) was 6.03 µM, the GI50 (LOX IMVI) was 4.27 µM and the GI50 (M14 [3]) was 3.63 µM. For the same compound, the GI50 (MDA-MB-435) was 1.95 µM, the GI50 (SK-MEL-5 [4]) was 2.4 µM and the GI50 (IGROV1) was 10 µM. For the same compound, the GI50 (OVCAR-3) was 2.88 µM, the GI50 (OVCAR-4) was 3.89 µM and the GI50 (OVCAR-5 [5]) was 10.7 µM. For the same compound, the GI50 (NCI/ADR-RES [6]) was 6.03 µM, the GI50 (ACHN) was 5.62 µM and the GI50 (TK-10) was 4.57 µM. For the same compound, the GI50 (PC-3) was 3.31 µM, the GI50 (MDA-MB231ATCC) was 11.2 µM and the GI50 (HS 578T) was 14.8 µM. It also gave a GI50 (BT-549 [7]) of 2.34 µM, a GI50 (T-47D [8]) of 2.19 µM and a GI50 (MDA-MB-468 [9]) of 2.4 µM. It also gave an activity at 10 µM (SR [10]) of -11.4%, an activity at 10 µM (NCI-H226) of -61.9% and an activity at 10 µM (HCC-2998 [11]) of -69.9%. For the same compound, the activity at 10 µM (HT29) was -68.8%, the activity at 10 µM (SNB-19) was 18.4% and the activity at 10 µM (M14 [12]) was -31.1%. The growth percent rate (SK-MEL-5 [13]; 10 μM one-dose, SK-MEL-5 melanoma, negative = lethality) was −98.17%, the activity at 10 µM (SK-MEL-5 [13]; Homo sapiens, 10 μM, SK-MEL-5, Melanoma, read-out: Growth percent rate) was -98.2% and the activity at 10 µM (UACC-62) was -54.8%. It also gave an activity at 10 µM (OVCAR-5 [14]) of -41.6%, an activity at 10 µM (NCI/ADR-RES [15]) of 0.4% and an activity at 10 µM (SK-OV-3) of 6.93%. For the same compound, the activity at 10 µM (UO-31) was 0.08%, the activity at 10 µM (DU-145) was 24.1% and the growth percent rate (MDA-MB-231/ATCC; 10 μM one-dose, MDA-MB-231/ATCC breast cancer, negative = lethality) was −86.10%. The activity at 10 µM (MDA-MB-231/ATCC; Homo sapiens, 10 μM, MDA-MB-231/ATCC, Breast Cancer, read-out: Growth percent rate) was -86.2%, the activity at 10 µM (BT-549 [16]) was -50.4% and the activity at 10 µM (T-47D [17]) was 9.79%. For the same compound, the activity at 10 µM (MDA-MB-468 [18]) was -62.5%.
